The values below come from publication PMC4319983, “PE859, a Novel Tau Aggregation Inhibitor, Reduces Aggregated Tau and Prevents Onset and Progression of Neural Dysfunction In Vivo” (PLoS ONE, 2015).

This assay has as its target T1, tau (microtubule-associated protein tau) (Homo sapiens, UniProt P10636).
T1 construct: gene MAPT
As to the kind of experiment: ThT fluorescence assay of heparin-induced aggregation of recombinant tau; 3RMBD result confirmed by TEM and CD. The format is biochemical. The source says:
ThT fluorescence assay of heparin-induced aggregation of recombinant tau; 3RMBD result confirmed by TEM and CD on tau (microtubule-associated protein tau) | PE859 inhibited the heparin-induced aggregation of both 3RMBD and full length tau in a concentration-dependent manner.

T1 sequence (P10636 150-247 isoform P10636-3): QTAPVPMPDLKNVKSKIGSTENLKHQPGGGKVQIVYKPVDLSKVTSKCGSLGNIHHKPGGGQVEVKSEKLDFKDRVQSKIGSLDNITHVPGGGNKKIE

Usually IC50 stands for the concentration at which inhibition is half-maximal. As to `COc1cc(OCc2ccccn2)ccc1/C=C/c1cc(/C=C/c2ccc3cc[nH]c3c2)[nH]n1` [PE859, 3-[(1E)-2-(1H-indol-6-yl)ethenyl]-5-[(1E)-2-[2-methoxy-4-(2-pyridylmethoxy)phenyl]ethenyl]-1H-pyrazole], the IC50 was 810 nM.
